Results as given in paper PMC12024540, “Peptide-Based Regulation of TNF-α-Mediated Cytotoxicity” (Biomolecules, 2025).
Read-outs that look alike come from different tables or passages of the source. Where no end group is shown, it is not given here.

Tests used:
rhTNF-α = rhTNF-α (Homo sapiens, UniProt P01375); assay: Microscale thermophoresis (MST) binding to labeled rhTNF-α; conditions: labeled rhTNF-α 20 nM, PBS, mean ± SD of three replicates
Procedure: MST was performed using a Monolith NT.115 Pico instrument (NanoTemper Technologies, Munich, Germany). In this technique, thermophoresis applied by irradiation with an infrared (IR) laser diode disrupts a ligand-target binding interaction that has equilibrated. The concentration of fluorescent molecules can be altered by the direct movement of molecules within a temperature gradient. The effect on the fluorescence signal is monitored continuously over time.
Experiments were performed using the Monolith Protein Labeling Kit RED-NHS 2nd Generation and Monolith NT.115 Premium Capillaries at Pico-RED 80% excitation power and medium MST power with thermophoresis. Mixtures of labeled molecules and functional peptides or TNFR1 were prepared in PBS. Labeled molecules were maintained at 20 nM for the peptide binding experiments, and the ligand concentrations varied according to the molecule with 16 serial dilutions. The peptide-labeled molecule mixture was loaded into the glass capillaries after 20 min incubation in the dark. Results were analyzed using M.O. Affinity Analysis v.2.3 software.

[1] = system: TNF-α-induced L929 cell death; assay: TNF-α neutralization test (TNF-α-induced cytotoxicity, MTT) on L929 cells; type: cell-based, mouse
Procedure: (§1) The TNF-α neutralizing activity of designed peptides and adalimumab molecules was compared with cell-based bioactivity assays. L929 cells were cultured in DMEM supplemented with 10% FBS and 1% P/S in a humidified 5% CO2 incubator at 37 °C [43].
(§2) In the TNF-α neutralization test, 3 × 10^4 cells in 100 μL were seeded into 96-well tissue culture plates and incubated at 37 °C in a 5% CO2 incubator for 24 ± 2 h. After incubation, cells were stimulated with 2 μg/mL actinomycin D and 1 ng/mL TNF-α in the presence of diluted concentrations of adalimumab and functional peptides ranging from 1 pM to 10 μM for 24 ± 2 h. […] TNF-α neutralizing activity was also examined by microscopy in a 24-well plate. Both the cytotoxicity effect and neutralizing activity of the OB1 peptide were visually examined by fluorescence microscopy (Zeiss AxioVert A, Oberkochen, Germany). OB1 and adalimumab were administered at a concentration of 1 μM with 1 ng/mL TNF-α.

L929 cells [2] = assay: MTT cytotoxicity of peptides on L929 cells; type: cell-based, mouse; conditions: at 10,000 nM (10 μM)
Procedure: as §1
Cytotoxicity of peptides was determined using the 3-(4,5-dimethylthiazol-2-yl)-2,5 diphenyltetrazolium bromide (MTT) cell proliferation assay. Briefly, 3 × 10^4 cells in 100 μL were seeded into 96-well tissue culture plates and incubated at 37 °C in a 5% CO2 incubator for 24 ± 2 h. Peptide concentrations were diluted from 1 pM to 10 μM and measured in triplicate. The following kit protocol and absorbance were measured at 550 nm and 690 nm using a microplate reader (Gen5 Synergy HT BioTek, Winooski, VT, USA).

L929 cells [3] = type: cell-based, mouse; conditions: 1 μM with TNF-α (1 ng/mL) and actinomycin D, microscopy
Procedure: as §2

TNF-α = conditions: peptide from T7 phage display library; cited from earlier work
Description: Peptide-based TNF-α inhibition has garnered attention in recent years, as studies have shown that peptides may help treat inflammatory diseases. In a study conducted in 2023, a nine amino acid-long peptide targeting TNF-α was discovered using a T7 phage display library. […] OB1 also attenuated TNF-α-induced cell death based on morphological examination (Figure 8). […] Thus, C87 is used as a positive control in many TNF-α inhibitor studies.

Chain of rhTNF-α (P01375 77-233 limits assumed): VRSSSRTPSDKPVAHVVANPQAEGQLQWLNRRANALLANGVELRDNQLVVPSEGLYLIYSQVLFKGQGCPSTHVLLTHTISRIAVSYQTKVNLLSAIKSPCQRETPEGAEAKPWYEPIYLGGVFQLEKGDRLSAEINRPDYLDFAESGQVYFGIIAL

Substance	Kd (rhTNF-α)	survival rate in TNF-α neutralization ([1]; 2 h, 10000 nM)	also measured
KGGGSGGGSGGGSRKEMGQV-NH2 [OB2]	46.7 nM	~80%	–
KRWSRYFWVDMTGTR-NH2 [OB8]	3890 ± 4540 nM	–	cytotoxicity (in words) (L929 cells [2]): non-toxic
Adalimumab	0.0211 ± 0.0036 nM	–	IC50 [1]: 3.85 nM; survival rate in TNF-α neutralization ([1]; L929 cells, 10,000 nM, 1 ng/mL TNF-α and actinomycin D): ~80%; cell survival by morphology with TNF-α and actinomycin D (L929 cells [3]): enhanced cell survival
KGGGSGGGSHIHDDLLRYYGW-NH2 [OB1]	300 nM	~80%	IC50 ([1]; mouse): 4.6 nM
ACHAWAPTR [pep2, nine amino acid-long peptide targeting TNF-α from a T7 phage display library]	–	–	Kd (TNF-α): 5140 nM
